“Also recorded” adds a separate entry of the source.
Legend:
plasma hAβ1-42 = test: Effects of oral anticoagulants on plasma level of hAβ1-42 in mice; format: in vivo; settings: for top dose tested is the maximal soluble dose: mouse, in vivo; for elevation of plasma levels of hAβ1-42: hAβ1-42 40 μg/kg, 6 h
Protocol: Blood was collected into K3 EDTA-containing tubes (Multivette 600 from Sarstedt). […] Rivaroxaban, dabigatran (dabigatran elexilate) and warfarin (warfarin sodium tablets) were from Bristol-Myers-Squibb, Combi-Blocks, and Advanced Chemblocks, respectively. Rivaroxaban was dissolved in 10% ethanol, 40% Solutol HS15 (Sigma) and 50% water and was administered to mice in 0.2 ml volume per 20 g body weight. Dabigatran was dissolved in 2% dimethyl sulfoxide in soy oil (Sigma) and was also administered to mice in 0.2 ml volume per 20 g body weight. Warfarin was dissolved in water and was administered to mice in 0.1 ml volume per 20 g body weight.

ERBB1 and ERBB2 = test: Tissue levels and phosphorylation of ERBB1 and ERBB2 by IB; format: in vivo, mouse; settings: CCl4 0.5 g/kg or hPEPD 4 mg/kg i.p., 24 h
Protocol: (§1) Animal studies. All animal studies were performed in accordance with protocols approved by the Institutional Animal Care and Use Committee at Roswell Park Cancer Institute. Male mice at 7-8 weeks of age were used, including wild type (WT) mice (C57BL/6), and mice deficient in FXII (C57BL/6-FXII^−/−) or FVII (C57BL/6-FVII^tTA/tTA). WT C57BL/6 mice were purchased from Taconic. C57BL/6-FXII^−/− mice and C57BL/6-FVII^tTA/tTA mice were bred in our own facility and genotyped. The breeders were kindly provided by Dr. Francis J. Castellino at University of Notre Dame. […] CCl4 was dissolved in corn oil, whereas all other substances were dissolved in PBS. The vehicle or the test substance was given to mice in 0.1 ml volume per 20 g body weight. Blood was collected from the mice at specific times by cardiac puncture at the time of sacrifice by carbon dioxide, and heart, liver and kidney were also collected from some of the mice. Blood was collected into K3 EDTA-containing tubes (Multivette 600 from Sarstedt), unless specified otherwise. All blood samples were promptly centrifuged to obtain plasma samples.
IB. […] Protein concentrations in all samples were measured by the BCA assay kit. […] The proteins were transferred to polyvinylidene fluoride membrane, probed with specific antibodies and detected using the ECL Plus Kit (Amersham) or the SuperSignal West Pico Kit (Thermo Scientific).

plasma mSRC = test: Plasma SRC concentration in mice by ELISA; format: in vivo, mouse; settings: FXII−/− mice, CCl4 0.5 g/kg or hPEPD 4 mg/kg i.p., 24 h
Protocol: as §1, with “Blood was collected into K3 EDTA-containing tubes (Multivette 600 from Sarstedt), unless specified otherwise. All blood samples were promptly centrifuged to obtain plasma samples.” left out
Measurement of plasma levels of PEPD, SRC, Aβ1-42 and FI. […] Upon adequate color development, 100 μl of stop solution (Cell Signaling, 7002) was added to each well, and absorbance at 450 nm was promptly recorded by a microtiter plate reader. Plasma FI concentration was determined using an assay kit (400-374-130050) from GenWay Biotech, following the manufacturer's instruction.

plasma Aβ1-42 = test: Plasma Aβ1-42 concentration in mice by ELISA; format: in vivo, mouse; settings: FXII−/− mice, CCl4 0.5 g/kg or hPEPD 4 mg/kg i.p., 24 h
Protocol: Animal studies. All animal studies were performed in accordance with protocols approved by the Institutional Animal Care and Use Committee at Roswell Park Cancer Institute. Male mice at 7-8 weeks of age were used, including wild type (WT) mice (C57BL/6), and mice deficient in FXII (C57BL/6-FXII^−/−) or FVII (C57BL/6-FVII^tTA/tTA). WT C57BL/6 mice were purchased from Taconic. C57BL/6-FXII^−/− mice and C57BL/6-FVII^tTA/tTA mice were bred in our own facility and genotyped. […] CCl4 was dissolved in corn oil, whereas all other substances were dissolved in PBS. The vehicle or the test substance was given to mice in 0.1 ml volume per 20 g body weight. Blood was collected from the mice at specific times by cardiac puncture at the time of sacrifice by carbon dioxide, and heart, liver and kidney were also collected from some of the mice. Blood was collected into K3 EDTA-containing tubes (Multivette 600 from Sarstedt), unless specified otherwise. All blood samples were promptly centrifuged to obtain plasma samples.

plasma PEPD = test: Plasma PEPD concentration in mice by ELISA; format: in vivo, mouse; settings: CCl4 0.5 g/kg i.p., 24 h
Protocol: as §1
Measurement of plasma levels of PEPD, SRC, Aβ1-42 and FI. […] The plates were washed three times with phosphate buffered saline tween-20 (PBST) and the coated wells were blocked by incubation with 200 μl/well of 1% BSA in PBS for at least 2 h at RT. After another round of wash with PBST, the plates were incubated with appropriately diluted Aβ1-42 standard, SRC standard or plasma samples (100 μl/well) for 2 h at RT. The plates were then washed with PBST and incubated with an anti-Aβ1-42 rabbit polyclonal antibody (sc-9129) or anti-SRC rabbit monoclonal antibody (2123) at 100 μl/well for 2 h at RT. The plates were washed again with PBST, and each well was incubated with a goat anti-rabbit IgG-HRP conjugate (100 μl) for 1 h at RT. After yet another round of wash with PBST, each well was incubated with 100 μl of HRP substrate 3,3′,5,5′-tetramethylbenzedine (Cell Signaling, 7004). Upon adequate color development, 100 μl of stop solution (Cell Signaling, 7002) was added to each well, and absorbance at 450 nm was promptly recorded by a microtiter plate reader. Plasma FI concentration was determined using an assay kit (400-374-130050) from GenWay Biotech, following the manufacturer's instruction.

liver = test: Liver damage after CCl4: plasma AST and ALT, liver weight; format: in vivo, mouse; settings: WT mice and FXII−/− mice, CCl4 0.5 g/kg i.p., 24 h
Protocol: as §1
Measurement of Plasma Levels of Aspartate Transaminase (AST) and Alanine Transaminase (ALT). Plasma AST activity was measured using the Infinity™ AST (GOT) Reagent kit (Thermo, TR70121). Plasma ALT activity was measured using the Infinity™ ALT (GPT) Reagent kit (Thermo, TR71121). […]

FXII [1] = test: FXII activation, chromogenic assay; format: biochemical, human; settings: FXII 0.97 nM, ZnCl2-containing PBS, RT
Protocol: Measurement of FXII activation. […] FXII activation was followed for 3 h at RT by monitoring the conversion of the chromogenic substrate at 405 nm by a microtiter plate reader.
Each value is mean±SD (n=3).

[2] = tested on: plasma coagulation factors FXII, PK, HMWK, FXI, FIX, FX, FII, FI and FVII; test: Changes in plasma coagulation factors in mice by IB (FI by ELISA); format: in vivo, mouse; settings: WT mice, 6 h after i.p. treatment
Protocol: Animal studies. […] Male mice at 7-8 weeks of age were used, including wild type (WT) mice (C57BL/6), and mice deficient in FXII (C57BL/6-FXII^−/−) or FVII (C57BL/6-FVII^tTA/tTA). WT C57BL/6 mice were purchased from Taconic. C57BL/6-FXII^−/− mice and C57BL/6-FVII^tTA/tTA mice were bred in our own facility and genotyped. […] CCl4 was dissolved in corn oil, whereas all other substances were dissolved in PBS. The vehicle or the test substance was given to mice in 0.1 ml volume per 20 g body weight. Blood was collected from the mice at specific times by cardiac puncture at the time of sacrifice by carbon dioxide, and heart, liver and kidney were also collected from some of the mice. Blood was collected into K3 EDTA-containing tubes (Multivette 600 from Sarstedt), unless specified otherwise. All blood samples were promptly centrifuged to obtain plasma samples.
The plates were washed three times with phosphate buffered saline tween-20 (PBST) and the coated wells were blocked by incubation with 200 μl/well of 1% BSA in PBS for at least 2 h at RT. […] The plates were washed again with PBST, and each well was incubated with a goat anti-rabbit IgG-HRP conjugate (100 μl) for 1 h at RT. After yet another round of wash with PBST, each well was incubated with 100 μl of HRP substrate 3,3′,5,5′-tetramethylbenzedine (Cell Signaling, 7004). Upon adequate color development, 100 μl of stop solution (Cell Signaling, 7002) was added to each well, and absorbance at 450 nm was promptly recorded by a microtiter plate reader. Plasma FI concentration was determined using an assay kit (400-374-130050) from GenWay Biotech, following the manufacturer's instruction.
IB. Tissue samples were mixed with RIPA buffer (25 mM Tris-HCl, pH 7.6, 150 mM NaCl, 1% Nonidet P-40, 1% sodium deoxycholate, 0.1% SDS), supplemented with 2 mM phenylmethanesulfonyl fluoride, a proteinase inhibitor mix (Roche Applied Science) and phosphatase inhibitor Cocktail 2 (Sigma-Aldrich). Tissue samples were stroked in a Dounce homogenizer, and the homogenates were cleared by centrifugation at 12,000×g for 15 min at 4° C. Protein concentrations in all samples were measured by the BCA assay kit. Plasma samples were used without further processing (20 μl per sample). Each sample was mixed with 4× loading dye, heated for 5 min at 95° C. and then resolved by SDS-PAGE (8-12.5%). […] The proteins were transferred to polyvinylidene fluoride membrane, probed with specific antibodies and detected using the ECL Plus Kit (Amersham) or the SuperSignal West Pico Kit (Thermo Scientific).

FXII [3] = test: Binding to coagulation factor FXII (IP and IB); design: species or system human; settings: 40 nM (hAβ1-42 200 nM) with FXII in PBS, 2 h
Protocol: Binding reactions were carried out in PBS in a total volume of 100 μl for 2 h at 37° C. To assess binding of hPEPD to HMWK, PK, FXI, FXII or a FXII mutant, hPEPD at 40 nM was incubated with a potential binding partner at 0.5 μM. All FXII mutants are His tagged, while FXII is either 6XHis-tagged (generated in our own laboratory) or not His-tagged (purchased commercially), depending on the experiment. To compare hPEPD and its mutants for binding to FXII, hPEPD or a mutant (40 nM) was incubated with FXII at 0.5 μM. Likewise, to assess binding of mSRC to FXII and its mutants, mSRC (40 nM) was incubated with FXII or a mutant at 0.5 μM. At the end of the incubation, 300 μl PBS containing a specific primary antibody was added to the incubation solution, which was further incubated at 4° C. overnight, followed by IP by protein G-agarose, and the precipitates were analyzed by IB. […] The precipitates were re-dissolved in 30 μl of 2% SDS, which were analyzed along with the supernatants by IB.

Molecule: O=C(NC[C@H]1CN(c2ccc(N3CCOCC3=O)cc2)C(=O)O1)c1ccc(Cl)s1 [rivaroxaban]
- relative effectiveness in elevating plasma hAβ1-42 level (plasma hAβ1-42; comparison among warfarin, rivaroxaban, dabigatran and with EP): the most effective; also recorded: not as effective as EP
- top dose tested is the maximal soluble dose (plasma hAβ1-42): maximal soluble doses
- elevation of plasma levels of hAβ1-42 (plasma hAβ1-42; rivaroxaban 10 mg/kg oral once daily 5 days): 47.2 fold
- elevation of plasma levels of hAβ1-42 (plasma hAβ1-42; rivaroxaban 20 mg/kg oral once daily 5 days): 55.5 fold

Molecule: CC(=O)CC(c1ccccc1)c1c(O)c2ccccc2oc1=O (centres unmarked) [warfarin]
- elevation of plasma levels of hAβ1-42 (plasma hAβ1-42; warfarin 1 mg/kg oral once daily 5 days): 33.2 fold
- elevation of plasma levels of hAβ1-42 (plasma hAβ1-42; warfarin 3 mg/kg oral once daily 5 days): 42.4 fold

Molecule: [H]/N=C(/N)c1ccc(NCc2nc3cc(C(=O)N(CCC(=O)O)c4ccccn4)ccc3n2C)cc1 [dabigatran]
- elevation of plasma levels of hAβ1-42 (plasma hAβ1-42; dabigatran 22.5 mg/kg oral once daily 5 days): 14.1 fold
- elevation of plasma levels of hAβ1-42 (plasma hAβ1-42; dabigatran 45 mg/kg oral once daily 5 days): 21.3 fold
- top dose tested is the maximal soluble dose (plasma hAβ1-42): maximal soluble doses

Molecule: ClC(Cl)(Cl)Cl [CCl4, Carbon tetrachloride]
- changes in ERBB1/ERBB2 tyrosine phosphorylation and receptor depletion in heart, kidney and liver, WT mice compared to FXII−/− mice (ERBB1 and ERBB2): reduced changes in receptor tyrosine phosphorylation
- average plasma level of mSRC, increase (plasma mSRC): 6.7%
- average plasma level of mAβ1-42, increase (plasma Aβ1-42): 24.9%
- plasma level of mPEPD, increase (plasma PEPD; FXII−/− mice): 16.7 fold
- plasma level of mPEPD, increase (plasma PEPD; WT mice): 3.7 fold
- liver damage (plasma AST, ALT, liver weight) (liver): caused significant but similar liver damage

B1: 1M-228Hdel-hPEPD: hPEPD mutant named only once; probably 1M-265Rdel-hPEPD (protein, UniProt P12955 229-493, looked up, fragment)
chain: YCYSRGGMRHSSYTCICGSGENSAVLHYGHAGAPNDRTIQNGDMCLFDMGGEYYCFASDITCSFPANGKFTADQKAVYEAVLRSSRAVMGAMKPGVWWPDMHRLADRIHLEELAHMGILSGSVDAMVQAHLGAVFMPHGLGHFLGIDVHDVGGYPEGVERIDEPGLRSLRTARHLQPGMVLTVEPGIYFIDHLLDEALADPARASFLNREVLQRFRGFGGVRIEEDVVVTDSGIELLTCVPRTVEEIEACMAGCDKAFTPFSGPK
- FXII activation, activity relative to hPEPD (FXII [1]): about 50%

B2: mPEPD: mouse PEPD purified from mouse kidney by immunoaffinity purification, without any tag (protein, UniProt Q11136 2-493, looked up)
Xaa-Pro dipeptidase: ASTVRPSFSLGNETLKVPLALFALNRQRLCERLRKNGAVQAASAVVLQGGEEMQRYCTDTSIIFRQESFFHWAFGVVESGCYGVIDVDTGKSTLFVPRLPDSYATWMGKIHSKEYFKEKYAVDDVQYTDEIASVLTSRNPSVLLTLRGVNTDSGSVCREASFEGISKFNVNNTILHPEIVECRVFKTDMELEVLRYTNRISSEAHREVMKAVKVGMKEYEMESLFQHYCYSRGGMRHTSYTCICCSGENAAVLHYGHAGAPNDRTIKDGDICLFDMGGEYYCFASDITCSFPANGKFTEDQKAIYEAVLRSCRTVMSTMKPGVWWPDMHRLADRIHLEELARIGLLSGSVDAMLQVHLGAVFMPHGLGHFLGLDVHDVGGYPEGVERIDEPGLRSLRTARHLEPGMVLTVEPGIYFIDHLLDQALADPAQACFFNQEVLQRFRNFGGVRIEEDVVVTDSGMELLTCVPRTVEEIEACMAGCDKASVPFSGQK
- activation/cleavage of plasma coagulation factors [2]: elicited the same response as did hPEPD

B3: 1M-265Rdel-hPEPD: hPEPD deletion mutant, cannot form homodimers (protein, UniProt P12955 266-493, looked up, fragment)
chain: TIQNGDMCLFDMGGEYYCFASDITCSFPANGKFTADQKAVYEAVLRSSRAVMGAMKPGVWWPDMHRLADRIHLEELAHMGILSGSVDAMVQAHLGAVFMPHGLGHFLGIDVHDVGGYPEGVERIDEPGLRSLRTARHLQPGMVLTVEPGIYFIDHLLDEALADPARASFLNREVLQRFRGFGGVRIEEDVVVTDSGIELLTCVPRTVEEIEACMAGCDKAFTPFSGPK
- binding to FXII (FXII [3]): almost indistinguishable from hPEPD in FXII binding

B4: 185V-493Kdel-hPEPD: hPEPD deletion mutant, cannot form homodimers (protein, UniProt P12955 1-184, looked up, fragment)
chain: MAAATGPSFWLGNETLKVPLALFALNRQRLCERLRKNPAVQAGSIVVLQGGEETQRYCTDTGVLFRQESFFHWAFGVTEPGCYGVIDVDTGKSTLFVPRLPASHATWMGKIHSKEHFKEKYAVDDVQYVDEIASVLTSQKPSVLLTLRGVNTDSGSVCREASFDGISKFEVNNTILHPEIVECR
- binding to FXII (FXII [3]): neither 185V-493Kdel-hPEPD nor 266T-493Kdel-hPEPD could bind to FXII

B5: 266T-493Kdel-hPEPD: hPEPD deletion mutant, cannot form homodimers (protein, UniProt P12955 1-265, looked up, fragment)
chain: MAAATGPSFWLGNETLKVPLALFALNRQRLCERLRKNPAVQAGSIVVLQGGEETQRYCTDTGVLFRQESFFHWAFGVTEPGCYGVIDVDTGKSTLFVPRLPASHATWMGKIHSKEHFKEKYAVDDVQYVDEIASVLTSQKPSVLLTLRGVNTDSGSVCREASFDGISKFEVNNTILHPEIVECRVFKTDMELEVLRYTNKISSEAHREVMKAVKVGMKEYELESLFEHYCYSRGGMRHSSYTCICGSGENSAVLHYGHAGAPNDR
- binding to FXII (FXII [3]): neither 185V-493Kdel-hPEPD nor 266T-493Kdel-hPEPD could bind to FXII

From patent publication US20180188270A1, “DIAGNOSTIC TEST FOR ALZHEIMER'S DISEASE BASED ON IDENTIFICATION OF A PROTEOLYTIC PATHWAY” (Health Research, Inc., priority 2015, published 2018)
